These antisense oligonucleotides have a phosphorothioate backbone; sugars and methylation of C are not fully specified.
Note: test concentration or dose not given here.

The target in the first series is RHOC. The settings on record: ASO.
In the case of CTCCTGGTGTGCTCGTCT, the remaining target (mRNA or protein) (fraction of control) was found to be 0.33.
The sequence GGAGGGAACTGAAAATGG had a remaining target (mRNA or protein) (fraction of control) of 0.87.
Still for that read-out and setting: the result for GGAAGGGCAGGGCATAGG reads 0.79; that for AGGTCTTCCCACAGGCAC, 0.6; that for TTCTCAAAGACAGTAGGG, 0.98.
Turning to ACTCTGGGTCCCTACTGC, the remaining target (mRNA or protein) (fraction of control) turned out to be 0.8.
Regarding AGTTCTCAAAGACAGTAG, the remaining target (mRNA or protein) (fraction of control) came out at 0.62.
Still for that read-out and setting: the result for GAGCCTTCAGTATGGAGC reads 0.37.
On the same count and under the same terms, the result for AGGCACCATCCCCAACGA reads 0.19; that for TGCAGAAACAACTCCAGG, no less than 1.
The same measure, in the same setting: the result for CAGACCGAACGGGCTCCT reads 0.35; that for TTCCTCAGACCGAACGGG, 0.43; that for GCTGAAGTTCCCAGGCTG, 0.75.
In the case of TAAAGTGCTGGTGTGTGA, the remaining target (mRNA or protein) (fraction of control) turned out to be 0.61.
For TCGTCTTGCCTCAGGTCC, the remaining target (mRNA or protein) (fraction of control) is 0.21.
The same measure, in the same setting: the figure for CCTGTGAGCCAGAAGTGT is 0.31.
On the same count and under the same terms, the result for CATGAGGAAGGGCAGGGC reads no less than 1; that for GAGCTGAGATGAAGTCAA, 0.71; that for GTATGGAGCCCTCAGGAG, 0.4.
In the case of CTCCCGCACTCCCTCCTT, the remaining target (mRNA or protein) (fraction of control) is 0.09.
Sequence TCCCACAGGCACCATCCC showed a remaining target (mRNA or protein) (fraction of control) of 0.3.
As to GAAAATGGAGCCTTCAGT, the remaining target (mRNA or protein) (fraction of control) came out at 0.76.
Still for that read-out and setting: the result for CCGGCTGAAGTTCCCAGG reads 0.58; that for TGTTTTCCAGGCTGTCAG, 0.41; that for AGGGCAGGGCATAGGCGT, 0.69.
Sequence TTGCTGAAGACGATGAGG registered a remaining target (mRNA or protein) (fraction of control) of 0.77.
Still for that read-out and setting: the result for CACTTTCCTGTGAGCCAG reads 0.18.
Still for that read-out and setting: the figure for GTGTGCTCGTCTTGCCTC is 0.33; for CTCAAACACCTCCCGCAC it is 0.66.
On the same count and under the same terms, the result for GCAGGAGGGAACTGAAAA reads 0.73; that for TCAAAGACAGTAGGGACG, no less than 1.
Take TTCCTGTGAGCCAGAAGT: the remaining target (mRNA or protein) (fraction of control) worked out at 0.31.
The same measure, in the same setting: the result for GGAACTGAAAATGGAGCC reads 0.98; that for CCCCTCCGACGCTTGTTC, 0.34; that for CTTGTTCTTGCGGACCTG, 0.28.
Take ACTCAAGGTAGCCAAAGG: the remaining target (mRNA or protein) (fraction of control) worked out at 0.67.
The same measure, in the same setting: the figure for GGCACCATCCCCAACGAT is 0.19; for ATGAGGAGGCAGGTCTTC it is 0.59; for GGCCATCTCAAACACCTC it is 0.36.
Still for that read-out and setting: the result for AGACACTTTCCTGTGAGC reads 0.31.

In the next series the target is INPPL1. The settings on record: ASO.
In the case of ATGTTGTCACTGCTCTGG, the remaining target (mRNA or protein) (fraction of control) was 0.92.
Same read-out and setting: the figure for GGTCCTTCTCCTTCTCAA is 0.52; for AGAGCAGGGCAGCACAGA it is no less than 1.
Same read-out and setting: the figure for CAGTGGTGGAGGTGGAAA is no less than 1.
Regarding TGTGCCTCCAGACTCCTC, the remaining target (mRNA or protein) (fraction of control) stood at 0.59.
On the same count and under the same terms, the figure for CAGGCGGTAGTTGAGGTC is no less than 1; for TCCGTCCTGAGCCTAAAA it is 0.7.
Same read-out and setting: the figure for ACAGACCAGGAGACAGTG is 0.94; for CTCTGGTTCTTCAAATAA it is no less than 1.
On the same count and under the same terms, the figure for CGCTCTCGCTGTCTCGGA is no less than 1; for AGGTGGGTGGGAAGGAGA it is 0.98.

A further series has as its target PCK2. The settings on record: ASO.
Sequence GCGTTGGGATTGGTGGTGGC displayed a remaining target (mRNA or protein) (fraction of control) of 0.82.
On the same count and under the same terms, the figure for GCTACGGCATGATGGCCAGC is 0.89.
TGCGGCCATGGCACCTGGGC had a remaining target (mRNA or protein) (fraction of control) of 0.55.
Still for that read-out and setting: the result for GGTGATGCCCAGGATCAGCA reads 0.78.
CACCGTCTTGCTCTCTACTC showed a remaining target (mRNA or protein) (fraction of control) of 0.85.
On the same count and under the same terms, the figure for AGACTAGGCCTCAGGTCACA is no less than 1.
Same read-out and setting: the result for TGAGGCCGCTGAGATCCAAG reads 0.67; that for CCCACAAACACCCCATGACG, 0.35.
Same read-out and setting: the result for CACTTGACAAAGTCACCATC reads no less than 1; that for TCCATCACAGATGTGGATGC, 0.87.
CTTGCCCAGCAGGGAGTTGC came in with a remaining target (mRNA or protein) (fraction of control) of no less than 1.
On the same count and under the same terms, the figure for TTGCACGGCCACTGGCTCAC is 0.94; for AGGAACCGAGCGGAGCCGGG it is 0.68.
On the same count and under the same terms, the result for TCGGATGAGGCCCTGCTGCT reads 0.86; that for GAGCTGCACCCCGATGCGGG, no less than 1; that for AATGCCAGTGGGAAGCTGGC, 0.88.
GGCCCGGAGTCGACCTTCAC had a remaining target (mRNA or protein) (fraction of control) of 0.68.
Sequence ACCAGGCGGGAGTGGTACCG registered a remaining target (mRNA or protein) (fraction of control) of 0.84.
As for AAGATGTTAGTTAATATCAA, the remaining target (mRNA or protein) (fraction of control) was no less than 1.
Sequence TGCCTTCCCTATTCCCAGAT came in with a remaining target (mRNA or protein) (fraction of control) of 0.82.
For TCACGCCGGAACCAGTTGAC, the remaining target (mRNA or protein) (fraction of control) was no less than 1.
Same read-out and setting: the figure for CCGGGCCAGCCGAGAGGCGA is no less than 1; for AGTACACGCCACCATCACTG it is 0.91.
For GGGCCTCCCAGGCTGGGTCC, the remaining target (mRNA or protein) (fraction of control) was no less than 1.
Still for that read-out and setting: the figure for TTTCCAGGGTTTGCCCAGCC is 0.55; for TGATCTCCCGCTGGTCGGGC it is 0.73.
On the same count and under the same terms, the result for GGCAGATCCTGGTTGACCTG reads 0.81; that for GGCGGTACAATGCGGCCATG, 0.81; that for TCACATTTTGTGCACACGTC, 0.76.
On the same count and under the same terms, the figure for CTGCATGCAGCCTGGAAACC is 0.83; for GAGCATTCTCCCCAAAGCCT it is 0.95.
Regarding GTAGTGCCCGAAGTTGTAGC, the remaining target (mRNA or protein) (fraction of control) amounted to 0.77.
Same read-out and setting: the figure for TTAAAATAGATAAGCATCTC is no less than 1; for CTTTGTGTTCTGCTGCAGCA it is 0.49; for TCACGAACCTCCTGTTCCCA it is 0.6.
On the same count and under the same terms, the figure for TGGGTGTCTCTCGGGCACTG is 0.9; for TCCAGCCTGGCAGTGCAGGC it is 0.75.
Same read-out and setting: the result for GGACAGTCTTTGTGGGAAGG reads no less than 1; that for CCAGTCGGGTCATAATACGC, 0.74; that for GGCACTAGGGAAGGCGGCTG, 0.84.

A further series addresses MAP2K6. The settings on record: ASO.
In turn, CTGAGACATTTTCCCCTTTC displayed a remaining target (mRNA or protein) (fraction of control) of 0.91.
For the sequence GGTGGGCCGAACCAGAAGCC, the remaining target (mRNA or protein) (fraction of control) was no less than 1.
The same measure, in the same setting: the result for CAAGTGTCAGAAGAACCAAA reads 0.7; that for TGCCTTTCGACTGAGACATT, 0.67; that for GATGCATATTAAATAATTTC, 0.83.
Still for that read-out and setting: the figure for GAATTTATCTAGTGATGTAT is no less than 1.
On the same count and under the same terms, the figure for CATTTTCCCCTTTCCTTTGA is no less than 1.
The sequence GAGACATTTTCCCCTTTCCT returned a remaining target (mRNA or protein) (fraction of control) of 0.66.
On the same count and under the same terms, the result for CTTCACCCCGAAACCCACCA reads 0.34; that for TATGTAGGCCGTTCTTTGGA, 0.95.
Still for that read-out and setting: the result for TCTGTAGCTAGTTTTGCAAC reads 0.88; that for AATTTTAAGGCCAGGGTTTC, no less than 1; that for GTTTCTGTTCCTGGCTATTT, 0.79.
The same measure, in the same setting: the result for TATTTTCCCTGTCAATTACT reads 0.99.
In turn, CTACAAATCTACTTATAATT came in with a remaining target (mRNA or protein) (fraction of control) of 0.99.
As for GTGAATTGCCAAATAGACAC, the remaining target (mRNA or protein) (fraction of control) was 0.8.
Still for that read-out and setting: the result for GCCAGGGCTGGCAGCTAAAA reads 0.8; that for CGAGAAAGAACTTTTGCTGT, no less than 1; that for ACACATGGCAGGAGGGACAA, 0.78.
Sequence TATCAAAGAATTACTCACTA came in with a remaining target (mRNA or protein) (fraction of control) of 0.85.
Sequence AGAAGAAAACAAACAAACAA returned a remaining target (mRNA or protein) (fraction of control) of 0.82.
On the same count and under the same terms, the result for GACTGAGACATTTTCCCCTT reads 0.88.
The same measure, in the same setting: the figure for TTGGAGTCTAAATCTCTAGG is no less than 1; for AAGAGAGGATTCAGGGAAGC it is no less than 1; for CAGTTCATTCTATACTATAG it is 0.7.
The same measure, in the same setting: the figure for ATCTGTTCCTTTGGATTCAT is 0.73.

These data come from the OligoGym collection.
